In the Kinase Knowledgebase extract (Sharma et al. 2016):
pIC50, pKi: −log10 of the molar value. Values joined by “and” are separate entries in the source; they are usually repeats but may differ in a detail not shown here. Equal entries are not always repeated.

Target: MAPK14 (human) (UniProt Q16539)
Test: Inhibition of MAPK14 Kinase Activity

Sequence of MAPK14 (human) (Q16539 whole entry, looked up): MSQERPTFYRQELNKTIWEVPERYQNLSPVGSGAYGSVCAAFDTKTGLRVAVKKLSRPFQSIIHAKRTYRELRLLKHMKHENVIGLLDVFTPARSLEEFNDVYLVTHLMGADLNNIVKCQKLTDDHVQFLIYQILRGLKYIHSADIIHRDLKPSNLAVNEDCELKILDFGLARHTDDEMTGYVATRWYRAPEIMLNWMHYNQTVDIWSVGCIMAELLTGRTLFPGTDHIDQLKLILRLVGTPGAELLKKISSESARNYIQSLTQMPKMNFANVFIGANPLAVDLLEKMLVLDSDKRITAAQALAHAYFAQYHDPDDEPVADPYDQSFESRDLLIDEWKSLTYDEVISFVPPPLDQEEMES

| Structure (SMILES) | pIC50 | pKi |
| --- | --- | --- |
| Cc1nc(OCc2ccc(F)cc2F)c(Cl)c(=O)n1C(C)C | 6.46 | 6.81 |
| CC(C)n1c(N2CCC(NC(=O)CN)C2)nc(OCc2ccc(F)cc2F)c(Br)c1=O (stereo not drawn) | 6.66 | 6.93 |
| CC(C)n1c(N2CCN(CC(N)=O)CC2)nc(OCc2ccc(F)cc2F)c(Br)c1=O | 6.60 | 6.98 |
| CC(C)n1c(-c2ccccc2)nc(OCc2ccc(F)cc2F)c(Cl)c1=O | 6.59 | 6.84 |
| CNC(=O)CCCc1nc(OCc2ccc(F)cc2F)c(Cl)c(=O)n1C(C)C | 6.31 | 6.60 |
| CC(C)n1c(-c2cccc(C(N)=O)c2)nc(OCc2ccc(F)cc2F)c(Cl)c1=O | 5.99 | 6.25 |
| CC(C)n1c(N2CCN(C(=O)C(C)(C)N)CC2)nc(OCc2ccc(F)cc2F)c(Br)c1=O | 6.27 | 6.65 |
| CC(C)n1c(CCCC(=O)O)nc(OCc2ccc(F)cc2F)c(Cl)c1=O | 6.30 | 6.61 |
| CC(C)n1c(OCCN)nc(OCc2ccc(F)cc2F)c(Br)c1=O | 6.48 | 6.85 |
| CSc1cc(OCc2ccc(F)cc2F)c(Br)c(=O)n1C(C)C | 6.64 | 6.92 |
| CC(C)n1c(CCCC(=O)NCCO)nc(OCc2ccc(F)cc2F)c(Br)c1=O | 6.22 | 6.56 |
| CC(C)n1c(N2CC[C@@H](NCCO)C2)nc(OCc2ccc(F)cc2F)c(Br)c1=O | 6.21 | 6.46 |
| CC(C)n1c(OCCNC(=O)NCCO)nc(OCc2ccc(F)cc2F)c(Cl)c1=O | 6.40 | 6.72 |
| CC(=O)NCCCCc1nc(OCc2ccc(F)cc2F)c(Cl)c(=O)n1C(C)C | 6.48 | 6.80 |
| CC(C)n1c(N2CCNCC2)nc(OCc2ccc(F)cc2F)c(Br)c1=O | 6.14 | 6.42 |
| CC(C)n1c(-c2ccc(C(N)=O)cc2)nc(OCc2ccc(F)cc2F)c(Cl)c1=O | 6.48 | 6.74 |
| CC(C)n1c(CCCC(=O)NC[C@@H](C)O)nc(OCc2ccc(F)cc2F)c(Cl)c1=O | 6.23 | 6.51 |
| CC(C)n1c(S(C)(=O)=O)nc(OCc2ccc(F)cc2F)c(Br)c1=O | 6.52 | 6.81 |
| CC(C)n1c(CCC(=O)O)nc(OCc2ccc(F)cc2F)c(Cl)c1=O | 5.63 | 5.95 |
| CC(C)n1c(N2CCC(O)CC2)nc(OCc2ccc(F)cc2F)c(Br)c1=O | 6.52 | 6.78 |
| CC(=O)N[C@H]1CCN(c2nc(OCc3ccc(F)cc3F)c(Cl)c(=O)n2C(C)C)C1 | 6.15 | 6.35 |
| CC(C)n1c(NCC(=O)N2CCCC2)nc(OCc2ccc(F)cc2F)c(Br)c1=O | 6.67 | 6.99 |
| CC(C)n1c(NCC(=O)NCCO)nc(OCc2ccc(F)cc2F)c(Br)c1=O | 6.66 | 6.98 |
| CC(C)n1c(-c2cccc(C(N)=O)c2)nc(OCc2ccc(F)cc2F)c(Br)c1=O | 6.22 | 6.42 |

| Structure (SMILES) | pIC50 | pKi |
| --- | --- | --- |
| CC(C)n1c(N2CC[C@H](NC(=O)CO)C2)nc(OCc2ccc(F)cc2F)c(Cl)c1=O | 6.09 | 6.28 |
| C=CCc1nc(OCc2ccc(F)cc2F)c(Cl)c(=O)n1C(C)C | 6.59 | 6.88 |
| CC(C)n1c(OCCCC(=O)NCCO)nc(OCc2ccc(F)cc2F)c(Cl)c1=O | 6.48 | 6.80 |
| CC(C)n1c(N2CC[C@H](N)C2)nc(OCc2ccc(F)cc2F)c(Br)c1=O | 6.09 | 6.36 |
| CC(C)n1c(CCCCO)nc(OCc2ccc(F)cc2F)c(Cl)c1=O | 6.74 | 7.04 |
| CNC(=O)NCCOc1nc(OCc2ccc(F)cc2F)c(Cl)c(=O)n1C(C)C | 6.60 | 6.91 |
| CNC(=O)CCCc1nc(OCc2ccc(F)cc2F)c(Br)c(=O)n1C(C)C | 6.25 | 6.59 |
| CC(C)n1c(OCC(N)=O)nc(OCc2ccc(F)cc2F)c(Br)c1=O | 6.57 | 6.88 |
| COC(=O)c1ccc(CNc2nc(OCc3ccc(F)cc3F)c(Br)c(=O)n2C(C)C)cc1 | 6.20 | 6.52 |
| CC(C)n1c(N2CC[C@@H](NC(=O)OCc3ccccn3)C2)nc(OCc2ccc(F)cc2F)c(Br)c1=O | 5.91 | 6.12 |
| CC(=O)NCc1nc(OCc2ccc(F)cc2F)c(Br)c(=O)n1C(C)C | 5.86 | 6.17 |
| CC(C)n1c(OCCCC(=O)O)nc(OCc2ccc(F)cc2F)c(Cl)c1=O | 6.64 | 6.96 |
| CC(C)n1c(N(C)CC(N)=O)nc(OCc2ccc(F)cc2F)c(Cl)c1=O | 5.77 | 6.11 |
| CC(C)n1c(CCCO)nc(OCc2ccc(F)cc2F)c(Cl)c1=O | 6.41 | 6.69 |
| CNC(=O)CCc1nc(OCc2ccc(F)cc2F)c(Cl)c(=O)n1C(C)C | 5.61 | 5.94 |
| CC(C)n1c(-c2ccccc2)nc(OCc2ccc(F)cc2F)cc1=O | 5.50 | 5.77 |
| CC(C)n1c(N2CC[C@@H](NC(=O)C(C)(C)O)C2)nc(OCc2ccc(F)cc2F)c(Cl)c1=O | 6.32 | 6.51 |
| Cn1c(NCC(N)=O)nc(OCc2ccc(F)cc2F)c(Br)c1=O | 6.02 | 6.27 |
| CC(C)n1c(N2CC[C@H](NC(=O)C(C)(C)O)C2)nc(OCc2ccc(F)cc2F)c(Cl)c1=O | 6.06 | 6.26 |
| CC(C)n1c(N2CC[C@@H](N)C2)nc(OCc2ccc(F)cc2F)c(Cl)c1=O | 6.30 | 6.50 |
| CC(C)n1c(N2CC[C@@H](NC(=O)CO)C2)nc(OCc2ccc(F)cc2F)c(Cl)c1=O | 6.43 | 6.62 |
| CC(C)n1c(CCCCO)nc(OCc2ccc(F)cc2F)c(Br)c1=O | 6.62 | 6.94 |
| CC(C)n1c(NCCC(N)=O)nc(OCc2ccc(F)cc2F)c(Br)c1=O | 7.89 and 7.85 | 8.16 and 8.20 |

The remaining compounds from weak to strong by pIC50, led by results:

| pIC50 | pKi | Structure (SMILES) |
| --- | --- | --- |
| 6.81 | 7.13 | CC(C)n1c(OCCCC(N)=O)nc(OCc2ccc(F)cc2F)c(Cl)c1=O |
| 6.82 | 7.21 | CC(C)n1c(N2CCC(N)C2)nc(OCc2ccc(F)cc2F)c(Br)c1=O (stereo not drawn) |
| 6.84 | 7.11 | CC(C)n1c(NCCN)nc(OCc2ccc(F)cc2F)c(Br)c1=O |
| 6.88 | 7.15 | CCN[C@@H]1CCN(c2nc(OCc3ccc(F)cc3F)c(Br)c(=O)n2C(C)C)C1 |
| 6.88 | 7.18 | CC(C)n1c(NCCC(C)(C)C)nc(OCc2ccc(F)cc2F)c(Br)c1=O |
| 6.89 | 7.21 | CCNC(=O)NCc1cc(F)ccc1COc1nc(C)n(C(C)C)c(=O)c1Br |
| 6.92 | 7.21 | CC(C)n1c(N2CCCC(C(N)=O)C2)nc(OCc2ccc(F)cc2F)c(Br)c1=O (stereo not drawn) |
| 6.95 | 7.23 | CC(C)n1c(-c2ccccc2)nc(OCc2ccc(F)cc2F)c(Br)c1=O |
| 6.96 | 7.22 | CC(C)n1c(-c2ccc(C(N)=O)cc2)nc(OCc2ccc(F)cc2F)c(Br)c1=O |
| 6.99 | 7.32 | CC(C)n1c(NCC(N)=O)nc(OCc2ccc(F)cc2F)c(Cl)c1=O |
| 7.09 | 7.31 | CC(=O)NCCOc1nc(OCc2ccc(F)cc2F)c(Cl)c(=O)n1C(C)C |
| 7.16 | 7.44 | CC(C)n1c(N2CC[C@@H](N)C2)nc(OCc2ccc(F)cc2F)c(Br)c1=O |
| 7.23 | 7.55 | CC(C)n1c(CNS(C)(=O)=O)nc(OCc2ccc(F)cc2F)c(Br)c1=O |
| 7.29 | 7.56 | CC(=O)NCCOc1nc(OCc2ccc(F)cc2F)c(Br)c(=O)n1C(C)C |
| 7.50 | 7.78 | CC(C)n1c(NCC(C)(C)O)nc(OCc2ccc(F)cc2F)c(Br)c1=O |
| 7.53 | 7.80 | CC(C)n1c(N2CCC[C@@H]2CO)nc(OCc2ccc(F)cc2F)c(Br)c1=O |
| 7.55 | 7.83 | CC(=O)NCCNc1nc(OCc2ccc(F)cc2F)c(Cl)c(=O)n1C(C)C |
| 7.58 | 7.81 | CC(C)n1c(OCCNS(C)(=O)=O)nc(OCc2ccc(F)cc2F)c(Cl)c1=O |
| 7.62 | 7.91 | CC(C)n1c(N2CCC[C@H]2C(N)=O)nc(OCc2ccc(F)cc2F)c(Br)c1=O |

| pIC50 | pKi | Structure (SMILES) |
| --- | --- | --- |
| 7.62 | 7.90 | CC(C)n1c(NCCCNC(=O)C(C)(C)O)nc(OCc2ccc(F)cc2F)c(Br)c1=O |
| 7.65 | 7.99 | CC(C)n1c(NCCNS(C)(=O)=O)nc(OCc2ccc(F)cc2F)c(Cl)c1=O |
| 7.67 | 7.95 | CC(C)n1c(NC[C@@H](O)CO)nc(OCc2ccc(F)cc2F)c(Br)c1=O |
| 7.67 | 7.91 | CC(C)n1c(OCCNC(N)=O)nc(OCc2ccc(F)cc2F)c(Cl)c1=O |
| 7.73 | 8.02 | CC(C)n1c(OCCNS(C)(=O)=O)nc(OCc2ccc(F)cc2F)c(Br)c1=O |
| 7.74 | 8.04 | CC(C)n1c(NC[C@H](O)CO)nc(OCc2ccc(F)cc2F)c(Br)c1=O |
| 7.76 | 8.05 | CC(C)n1c(NCCCC(N)=O)nc(OCc2ccc(F)cc2F)c(Br)c1=O |
| 7.76 | 8.09 | CC(C)n1c(NCCNC(=O)C(C)(C)O)nc(OCc2ccc(F)cc2F)c(Br)c1=O |
| 7.85 | 8.18 | CC(C)n1c(NCCNC(=O)CO)nc(OCc2ccc(F)cc2F)c(Br)c1=O |
| 7.85 | 8.15 | CC(C)n1c(NCCNC(N)=O)nc(OCc2ccc(F)cc2F)c(Br)c1=O |
| 7.85 | 8.15 | CC(C)n1c(NCC(N)=O)nc(OCc2ccc(F)cc2F)c(Br)c1=O |
| 7.89 | 8.18 | CC(=O)NCCCNc1nc(OCc2ccc(F)cc2F)c(Br)c(=O)n1C(C)C |
| 7.89 | 8.20 | CN[C@@H]1CCN(c2nc(OCc3ccc(F)cc3F)c(Br)c(=O)n2C(C)C)C1 |
| 7.90 | 8.23 | CC(C)n1c(NCCCNC(=O)CO)nc(OCc2ccc(F)cc2F)c(Br)c1=O |
| 8.30 | 8.68 | CC(C)n1c(NCCCNC(N)=O)nc(OCc2ccc(F)cc2F)c(Br)c1=O |
| 8.34 | 8.76 | CC(C)n1c(N[C@@H](C)C(N)=O)nc(OCc2ccc(F)cc2F)c(Br)c1=O |
| 8.59 | 9.15 | CC(C)n1c(OCCNC(N)=O)nc(OCc2ccc(F)cc2F)c(Br)c1=O |
| 8.77 | 9.69 | CC(C)n1c(NCCNS(C)(=O)=O)nc(OCc2ccc(F)cc2F)c(Br)c1=O |
